Twelve compounds from PubChem BioAssay (NCI) can be followed below.

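How tested: cells in 96-well plates exposed to compound for 48 hours at five concentrations. GI50 is the concentration that inhibits growth by half. TGI is the concentration that stops growth completely.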

Test systems include A498 renal; A549 NSCLC; KM12 colon; OVCAR-3 ovarian; SF-268 CNS; SW-620 colon; HCT-15 colon; NCI-H226 lung; OVCAR-4 ovarian; SN12C renal.
Assay in all cases: inhibition of tumour cell growth, NCI panel, 48 h

Regarding `CC1c2c(Cl)nc3ccccc3c2Oc2c1c(Cl)nc1ccccc21`, the TGI in the test on A498 renal, in the test on A549 NSCLC, with KM12 colon, in the test on OVCAR-3 ovarian, with SF-268 CNS and in the test with SW-620 colon was > 100 µM throughout.
As to `Cc1c2c(C#N)nccc2c(C)c2c1c1ccccc1n2Cc1ccccc1`, the TGI in the test on A549 NSCLC, in the test on HCT-15 colon, in the test on KM12 colon, in the test on NCI-H226 lung, in the test with OVCAR-3 ovarian and in the test with OVCAR-4 ovarian was > 100 µM throughout. Further, the TGI in the test on SF-268 CNS, in the test on SN12C renal and in the test with SW-620 colon was > 100 µM in each case.
In the case of `O=C1/C(=C/c2cccc(Cl)c2Cl)N=C(c2ccccc2)N1C1CC1`, the GI50 in the test on A549 NSCLC was 19.7 µM; with HCT-15 colon, 12.3 µM; in the test on KM12 colon, 11.9 µM; with NCI-H226 lung it was 9.54 µM; with OVCAR-3 ovarian it was 22.1 µM; in the test with SF-268 CNS it was 10.3 µM. Also, the GI50 in the test on SN12C renal is 8.62 µM; in the test on SW-620 colon, 26.7 µM. The TGI is > 50 µM in the test with A549 NSCLC; 39 µM in the test on HCT-15 colon; 34.4 µM with KM12 colon; 23.2 µM in the test with NCI-H226 lung; > 50 µM in the test with OVCAR-3 ovarian; 22.3 µM in the test on SF-268 CNS. Further, the TGI is 17.5 µM in the test with SN12C renal and > 50 µM with SW-620 colon.
As for `CC12CP(=O)(c3ccccc3)CC1C2(Cl)Cl` (stereo not drawn), the TGI with A549 NSCLC, in the test on KM12 colon, in the test on OVCAR-3 ovarian, in the test on OVCAR-4 ovarian, with SN12C renal and with SW-620 colon was > 100 µM throughout.
`[N-]=[N+]=N[C@H]1C[C@@H](CO)O[C@H]1n1cnc2c(N)ncnc21`: the TGI with A549 NSCLC, with KM12 colon, in the test on NCI-H226 lung, with OVCAR-3 ovarian, in the test with OVCAR-4 ovarian and in the test with SF-268 CNS was > 100 µM each time. Moreover, the TGI with SN12C renal and with SW-620 colon was > 100 µM in each case.
For `Cc1nn(-c2ccc(Cl)cc2)c2nc3c(nc12)C(=O)c1ccccc1-3`, the GI50 was 31.7 µM with A498 renal; > 100 µM in the test on A549 NSCLC; > 100 µM in the test with HCT-15 colon; > 100 µM in the test on KM12 colon; 25.6 µM in the test with NCI-H226 lung; > 100 µM with OVCAR-3 ovarian. Moreover, the GI50 with SF-268 CNS, in the test with SN12C renal and in the test with SW-620 colon was > 100 µM throughout. Besides, the TGI in the test on A498 renal, with A549 NSCLC, in the test with HCT-15 colon, in the test with KM12 colon, in the test on NCI-H226 lung and with OVCAR-3 ovarian was > 100 µM in each case. Further, the TGI with SF-268 CNS, in the test on SN12C renal and with SW-620 colon was > 100 µM in each case.
As for `COc1ccc(C(=O)/C=C/c2cc(-c3cc(OC)c(OC)c(OC)c3)n[nH]2)cc1OC`, the GI50 in the test on A498 renal is 1.48 µM; in the test on A549 NSCLC, 1.86 µM; in the test on HCT-15 colon it was 1.27 µM; with KM12 colon, 1.07 µM; in the test on OVCAR-3 ovarian, 1.68 µM; in the test on OVCAR-4 ovarian it was 2.69 µM. The GI50 is 1.82 µM in the test with SF-268 CNS, 1.54 µM in the test on SN12C renal and 1.37 µM in the test on SW-620 colon. Further, the TGI in the test with A498 renal was 2.98 µM; in the test on A549 NSCLC, 4.59 µM; in the test with HCT-15 colon, 2.85 µM; with KM12 colon, 2.41 µM; in the test with OVCAR-3 ovarian, 3.17 µM; with OVCAR-4 ovarian, 16.6 µM. Besides, the results for the TGI in the test on SF-268 CNS, in the test with SN12C renal and in the test on SW-620 colon were 3.96 µM, 3.13 µM and 2.99 µM, respectively.
Turning to `CCC(C)COC(=O)c1ccc(N=Cc2ccc(C=Nc3ccc(C(=O)OCC(C)CC)cc3)cc2)cc1` (stereo not drawn), the TGI in the test on A498 renal, in the test on A549 NSCLC, with HCT-15 colon, with NCI-H226 lung, with OVCAR-3 ovarian and in the test on OVCAR-4 ovarian was > 100 µM throughout. Further, the TGI in the test with SF-268 CNS, with SN12C renal and in the test on SW-620 colon was > 100 µM each time.
For `Cc1[nH]c2ccccc2c1C(=O)/C=C/c1ccccc1O`, the TGI in the test on A498 renal, in the test on A549 NSCLC, in the test with KM12 colon, in the test on OVCAR-3 ovarian, in the test with OVCAR-4 ovarian and in the test with SF-268 CNS was > 100 µM each time. Besides, the TGI in the test with SN12C renal and in the test on SW-620 colon was > 100 µM throughout.
In the case of `CCOC(=O)Nc1ccc(C)c(NC(=O)OCC)c1`, the TGI with A498 renal, in the test with A549 NSCLC, in the test on HCT-15 colon, with KM12 colon, in the test with NCI-H226 lung and with OVCAR-3 ovarian was > 100 µM in each case. The TGI in the test on SF-268 CNS, in the test on SN12C renal and in the test with SW-620 colon was > 100 µM each time.
Consider `COC1(OC)C(N(C)C)=C(Cl)C(=O)/C1=C/C=O`, for which the TGI with A498 renal, with A549 NSCLC, in the test on HCT-15 colon, in the test with NCI-H226 lung, with OVCAR-3 ovarian and in the test with OVCAR-4 ovarian was > 100 µM each time. Also, the TGI in the test with SF-268 CNS, in the test on SN12C renal and in the test with SW-620 colon was > 100 µM throughout.
For `O=C1C=CC(=O)c2cc3cc(CBr)ccc3cc21`, the GI50 is 17.5 µM with A498 renal; 9.07 µM with A549 NSCLC; 5.95 µM in the test on HCT-15 colon; 17.5 µM in the test on KM12 colon; 27.4 µM in the test on NCI-H226 lung; 7.43 µM in the test with OVCAR-3 ovarian. The GI50 with SF-268 CNS is 9.4 µM; in the test with SN12C renal it was 0.741 µM; in the test on SW-620 colon it was 2.29 µM. The TGI in the test with A498 renal was 34.4 µM; in the test with HCT-15 colon, 17.3 µM; in the test with KM12 colon it was 38.4 µM; with NCI-H226 lung it was 71.2 µM; with OVCAR-3 ovarian, > 21.8 µM; in the test on SF-268 CNS it was > 73.9 µM. In addition, the TGI in the test with SN12C renal was 2.91 µM; with SW-620 colon, 4.97 µM.
